Assay results taken from PMC6856131, “Pathways to defense metabolites and evading fruit bitterness in genus Solanum evolved through 2-oxoglutarate-dependent dioxygenases” (Nature Communications, 2019).

Experiments:
GAME31 (tomato) = biological target: T1, GAME31 (tomato) (Solanum lycopersicum, UniProt A0A6F8PJG0); format: biochemical; settings: alpha-ketoglutarate 10 mM, ascorbate 10 mM, FeSO4 500 uM, pH 7.5, 30 °C, 3 h
T1 construct: gene 23DOX

ScGAME32-8380-1-1 = system: T2, ScGAME32-8380-1-1; test: hydroxylation assay, UPLC-qTOF-MS; format: biochemical, Solanum chacoense; settings: alpha-ketoglutarate 10 mM, ascorbate 10 mM, FeSO4 500 uM, pH 7.5, 30 °C, 3 h; standard contains isomer impurities
T2 construct: pET28b, E. coli BL21 (DE3), Ni-NTA purified

ScGAME32-8380-1-2 = system: T3, ScGAME32-8380-1-2; test: hydroxylation assay, UPLC-qTOF-MS; format: biochemical, Solanum chacoense; settings: alpha-ketoglutarate 10 mM, ascorbate 10 mM, FeSO4 500 uM, pH 7.5, 30 °C, 3 h; standard contains isomer impurities
T3 construct: pET28b, E. coli BL21 (DE3), Ni-NTA purified
T3 sequence (DOC6856131_7 entry or part of it): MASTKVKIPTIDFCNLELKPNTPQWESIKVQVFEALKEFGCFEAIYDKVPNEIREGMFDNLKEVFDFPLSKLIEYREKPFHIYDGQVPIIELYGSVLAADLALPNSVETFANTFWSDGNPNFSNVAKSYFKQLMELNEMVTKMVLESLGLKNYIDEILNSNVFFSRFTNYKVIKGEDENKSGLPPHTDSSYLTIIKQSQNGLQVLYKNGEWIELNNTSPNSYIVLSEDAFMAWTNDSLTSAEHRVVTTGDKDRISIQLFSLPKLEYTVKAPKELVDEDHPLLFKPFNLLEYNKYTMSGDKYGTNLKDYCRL

T2 sequence (DOC6856131_6 entry or part of it): as the sequence (DOC6856131_7 entry or part of it) above, with L288M, N292L, Y301S counted along it
T1 sequence (A0A6F8PJG0 entry or part of it): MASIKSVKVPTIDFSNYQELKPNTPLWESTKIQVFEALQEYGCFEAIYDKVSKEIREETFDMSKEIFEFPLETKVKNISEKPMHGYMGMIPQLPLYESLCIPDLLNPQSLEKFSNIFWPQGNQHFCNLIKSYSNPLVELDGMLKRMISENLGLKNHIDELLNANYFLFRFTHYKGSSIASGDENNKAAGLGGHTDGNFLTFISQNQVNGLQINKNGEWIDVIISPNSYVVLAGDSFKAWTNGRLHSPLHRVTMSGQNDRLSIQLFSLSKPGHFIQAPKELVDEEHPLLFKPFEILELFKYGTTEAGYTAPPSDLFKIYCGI

| Compound | hydroxylation assay, UPLC-qTOF-MS (GAME31 (tomato)) | hydroxylation assay, UPLC-qTOF-MS (ScGAME32-8380-1-1) | hydroxylation assay, UPLC-qTOF-MS (ScGAME32-8380-1-2) |
| --- | --- | --- | --- |
| C[C@@H]1CC[C@@]2(NC1)O[C@H]1C[C@H]3[C@@H]4CC=C5C[C@@H](O[C@@H]6O[C@H](CO)[C@@H](O[C@@H]7O[C@@H](C)[C@H](O)[C@@H](O)[C@H]7O)[C@H](O)[C@H]6O[C@@H]6O[C@@H](C)[C@H](O)[C@@H](O)[C@H]6O)CC[C@]5(C)[C@H]4CC[C@]3(C)[C@H]1[C@@H]2C [α-solamargine] | hydroxy-solasodine, and hydroxy-solamargine from dehydrotomatine, solasodine, and α-solamargine, respectively | – | – |
| C[C@H]1CC[C@@H]2[C@@H](C)[C@H]3[C@H](C[C@H]4[C@@H]5CC=C6C[C@@H](O[C@@H]7O[C@H](CO)[C@@H](O[C@@H]8O[C@@H](C)[C@H](O)[C@@H](O)[C@H]8O)[C@H](O)[C@H]7O[C@@H]7O[C@@H](C)[C@H](O)[C@@H](O)[C@H]7O)CC[C@]6(C)[C@H]5CC[C@]34C)N2C1 [α-chaconine] | – | Incubation of ScGAME32-8380-1-1 or ScGAME32-8380-1-2 with α-chaconine and α-solanine resulted in the formation | Incubation of ScGAME32-8380-1-1 or ScGAME32-8380-1-2 with α-chaconine and α-solanine resulted in the formation |
